Results published in US11925632B2, “Isoquinoline derivatives for use in treating GLUT1 deficiency syndrome” (GLIAPHARM SA, priority 2019, dated 2024).

What was measured:
[1] = test system: primary mouse astrocytes; test: Extracellular lactate quantification (lactate release from primary astrocytes); type: cell-based
Method: Primary cultures of cerebrocortical astrocytes were obtained from 1 to 2-day-old OF1 mouse pups (Charles River). Briefly, cortices were isolated and minced in small pieces under a dissecting microscope. The cells were incubated for 30 min at 37° C. in a solution containing 20 U/ml papain, 1 mM L-cysteine and 10 kU/ml DNase I. After dissociation, papain activity was stopped by the addition of fetal calf serum (FCS). Single-cell suspension was then obtained by mechanical dissociation, which consisted in cells trituration in a DMEM D7777 medium supplemented with 44 mm NaHCO3, 10 ml/L antibiotic/antimycotic solution and 10% FCS. The cells were seeded at an average density of ˜10′000 cells/cm^2 on poly-D-lysine coated 96- or 12-well culture plates, depending on their use, and grown in DMEM D7777 medium supplemented with 44 mm NaHCO3, 10 ml/L antibiotic/antimycotic solution and 10% FCS at 37° C. in a humidified atmosphere containing 5% CO2/95% air. Culture medium was renewed twice a week. Cells were stimulated and harvested between DIV14 and DIV17, when confluence and cell growth were optimal.
Secretion of L-lactate was measured in the extracellular medium of 96-well plated astrocytes after 90 min stimulation (at 37° C., in 5% CO2/95% air conditions) with Vehicle (DMSO), the compounds of the invention (100 nM to 100 μM) or positive control. […] Stimulation medium was composed of D5030 medium complemented with 5 mM D-glucose and 44 mM sodium bicarbonate, pH 7.2. To quantify lactate concentrations in the extracellular medium, 200 μl of a 0.2M Glycine-semicarbazide buffer (pH 10) containing 3 mM NAD and 14 U/ml LDH was added to each well of a 96-well plate containing 30 μl aliquots of extracellular medium. Samples were incubated at 37° C. for 1 h. Fluorescence intensity (340 nm excitation/450 nm emission), which represents the amount of NADH produced, was measured, and lactate concentration values were determined relative to a standard curve of L-lactate concentrations.
The release of lactate from primary mouse astrocytes treated with compound (1) at 10 μM was quantified by (FIG. 1). Accumulation of lactate in the extracellular medium was measured over a period of 1.5 h. […] Maximal effects of the compounds were 38.6% (1), 38% (2), 31% (4) and 76% (3) when compared to the effect of the positive control (100%) for compounds (1) to (4), respectively.

[2] = test system: C57Bl/6J wild-type mice; test: In vivo pharmacodynamics, lactate biosensors (cerebral extracellular lactate); design: species or system mouse; conditions: 3 h recording, AUC ratio vs vehicle
Method: (§1) For pharmacodynamics (FIG. 5) and cognition (FIG. 7) experiments, adult male C57Bl/6J wild-type mice weighting 18-28 g (8 weeks of age) were used (Charles River). For ALS mouse models (FIG. 6), G93A SOD1 transgenic male and female mice on B6.SJL1-Gur/J background were used (Jackson Laboratory).
(§2) Animals were housed in groups of 3-5 in polypropylene cages (30×40×15 cm) with wire mesh top in a temperature (22±2° C.) and humidity (55±15%) controlled environment on a 12 hour light cycle (07.00-19.00 h lights on), except after surgeries when animal were housed individually. […]
Cerebral extracellular levels of lactate were monitored in vivo using lactate biosensors (Pinnacle Technology), according to the manufacturer's instructions. […] After surgery, mice were monitored closely and received analgesic treatment for at least 4 days. […] Concentrations of cerebral extracellular lactate were calculated from lactate probe electric signals using post-calibration values. […] Area Under the Curve (AUC) of lactate concentration curves were calculated using Graphpad Prism and the ratio of AUC after drug over Vehicle administration was calculated. Extracellular concentrations of L-lactate were measured in real time in freely moving animals for 3 hours after administration of Vehicle or Compound (1) (FIG. 5).

[3] = test system: G93A SOD1 transgenic mice; test: SOD1 G93A mouse ALS model (grip test, survival); type: in vivo
Method: as §1, §2
Transgenic mice on B6.SJL1-Gur/J background overexpressing the human mutated gene G93A SOD1 were used. […] F1 pups were genotyped after ear punching at weaning, using quantitative PCR (qPCR), which allowed determining the number of SOD1 copies in each mouse. […] Each mouse's weight was recorded every day throughout the entire treatment, while neuromuscular function was measured once a week. […]
The experiment was conducted in a room with a low light intensity (30 lux) to reduce stressful environment. […] Mice ability to grip the grid (time [s]) was measured in order to assess for their muscle strength and coordination. […]

With `COc1cc2ccnc(Nc3ccc(OC(F)(F)F)cc3)c2cc1OC` [Example 1, 6,7-dimethoxy-N-(4-(trifluoromethoxy)phenyl)isoquinolin-1-amine] the EC50 ([1]; Astrocyte, 1.5 h, primary mouse astrocytes, 90 min stimulation, read-out: EC50 of astrocyte-mediated lactate secretion) was 7.02 µM, the Emax ([1]; Mus musculus, Astrocyte, 1.5 h, positive control CCCP 2 μM, 90 min, read-out: Maximal effect on lactate secretion compared to the effect of the positive control (100%)) was 38.6% and the “Concentration at which effect on lactate release is already significant” value ([1]; primary mouse astrocytes, 90 min) was “below 1 μM”. The “Extracellular lactate levels in the brain” value ([2]; 10 mg/kg per os) was “significantly increases extracellular lactate levels”, the “Extracellular lactate levels in the brain” value ([2]; 100 mg/kg per os) was “significantly increases extracellular lactate levels” and the “Muscle function (grip test), onset of symptoms” value ([3]; 10 mg/kg oral daily from post-natal day 30, measured weekly until 16 weeks of age) was “delayed the onset of the symptoms”. For the same compound, the “Survival (life span, Kaplan-Meier)” value ([3]; 10 mg/kg oral daily from post-natal day 30, vs vehicle) was “significantly increased life span”.
